Measurements reported in ChEMBL document CHEMBL1201862, “PubChem BioAssay data set” (2004).
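Five concentrations, 48 hours, 96-well plates. Abbreviation: GI50, concentration required for 50% inhibition of growth.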 Activity calls are given as the source filed them. No stated cut-off is given here; in the data, active = GI50 up to about 1.1 µM and inactive = higher.

What was measured:
Assay in all cases: NCI tumour cell line growth inhibition, 48 h
UACC-62 = system: UACC-62
LOX IMVI = system: LOX IMVI
SK-MEL-2 = system: SK-MEL-2
SN12C = system: SN12C
OVCAR-8 = system: OVCAR-8
CAKI-1 = system: CAKI-1
OVCAR-5 = system: OVCAR-5
RPMI-8226 = system: RPMI-8226
NCI-H460 = system: NCI-H460
K562 = system: K562
SK-MEL-28 = system: SK-MEL-28
HL-60 = system: HL-60
NCI-H226 = system: NCI-H226
PC-3 = system: PC-3
MDA-MB-231 = system: MDA-MB-231
DU-145 = system: DU-145
BT-549 = system: BT-549
MCF7 = system: MCF7
MDA-N = system: MDA-N

SMILES	GI50 (UACC-62)	GI50 (LOX IMVI)	GI50 (SK-MEL-2)	GI50 (SN12C)	GI50 (OVCAR-8)	GI50 (CAKI-1)	GI50 (OVCAR-5)	GI50 (RPMI-8226)	GI50 (NCI-H460)	GI50 (K562)	GI50 (SK-MEL-28)	GI50 (HL-60)	GI50 (NCI-H226)	GI50 (PC-3)	GI50 (MDA-MB-231)	GI50 (DU-145)	GI50 (BT-549)	GI50 (MCF7)	GI50 (MDA-N)
CN(C)CCc1ccc(Cl)cc1Cl	> 100 µM (inactive)	> 100 µM (inactive)	> 100 µM (inactive)	> 100 µM (inactive)	> 100 µM (inactive)	> 100 µM (inactive)	> 100 µM (inactive)	> 100 µM (inactive)	> 100 µM (inactive)	> 100 µM (inactive)	> 100 µM (inactive)	> 100 µM (inactive)							
COc1ccc(-[n+]2nc(S(=O)(=O)O)c(/C=C/c3ccc(N(C)C)cc3)cc2C#N)cc1	> 100 µM (inactive)	> 100 µM (inactive)	> 100 µM (inactive)	> 100 µM (inactive)	> 100 µM (inactive)	> 100 µM (inactive)	> 100 µM (inactive)	> 100 µM (inactive)		> 100 µM (inactive)	> 100 µM (inactive)		> 100 µM (inactive)	> 100 µM (inactive)	> 100 µM (inactive)	> 100 µM (inactive)	> 100 µM (inactive)	> 100 µM (inactive)	
CCOC(=O)c1ccc2c(c1)nc1n2C(c2c(F)cccc2F)SC1 (centres undefined)	25.4 µM (inactive)	21.1 µM (inactive)	15.2 µM (inactive)	56.4 µM (inactive)	21.6 µM (inactive)	78.3 µM (inactive)	59.6 µM (inactive)	21.8 µM (inactive)	26.3 µM (inactive)	29.1 µM (inactive)	97.1 µM (inactive)	24.4 µM (inactive)	6.9 µM (inactive)	21.3 µM (inactive)	> 100 µM (inactive)	30.6 µM (inactive)	80.5 µM (inactive)	19.9 µM (inactive)	
C/C(=N\NC(=S)N1CCN(C)CC1)c1nc2cccnc2[nH]1	> 100 µM (inactive)	> 100 µM (inactive)		> 100 µM (inactive)	> 100 µM (inactive)	> 100 µM (inactive)	> 100 µM (inactive)	> 100 µM (inactive)	> 100 µM (inactive)	92.3 µM (inactive)	> 100 µM (inactive)	> 100 µM (inactive)	> 100 µM (inactive)	> 100 µM (inactive)	> 100 µM (inactive)		22.4 µM (inactive)	20.4 µM (inactive)	
CN(CCc1ccccn1)C(=S)N/N=C(\c1ccccc1)c1ccccn1	0.23 µM (active)	< 0.01 µM (active)	1.42 µM (inactive)	< 0.01 µM (active)	< 0.01 µM (active)	< 0.01 µM (active)	1.05 µM (active)	< 0.01 µM (active)	< 0.01 µM (active)	< 0.01 µM (active)	0.802 µM (active)	< 0.01 µM (active)		< 0.01 µM (active)		1.41 µM (inactive)		< 0.01 µM (active)	0.582 µM (active)
Nc1ccc(/C=C/c2ccc3cccnc3c2)cc1	> 100 µM (inactive)	> 100 µM (inactive)		> 100 µM (inactive)	> 100 µM (inactive)	90.8 µM (inactive)	> 100 µM (inactive)	2.26 µM (inactive)	> 100 µM (inactive)	> 100 µM (inactive)	> 100 µM (inactive)	4.61 µM (inactive)	> 100 µM (inactive)	> 100 µM (inactive)	> 100 µM (inactive)	> 100 µM (inactive)		5.81 µM (inactive)	> 100 µM (inactive)
O=C(Nc1ccccc1C(=O)O)C(=Cc1ccccc1O)NC(=O)c1ccccc1	> 100 µM (inactive)	58.9 µM (inactive)	> 100 µM (inactive)	> 100 µM (inactive)	> 100 µM (inactive)	> 100 µM (inactive)	> 100 µM (inactive)	> 100 µM (inactive)	> 100 µM (inactive)	> 100 µM (inactive)	> 100 µM (inactive)	> 100 µM (inactive)	61.2 µM (inactive)	> 100 µM (inactive)	> 100 µM (inactive)	> 100 µM (inactive)	> 100 µM (inactive)	9.27 µM (inactive)	
COc1ccc(-c2nc(-c3cc4c(ccc5ccccc54)oc3=O)cs2)cc1	> 100 µM (inactive)	> 100 µM (inactive)	> 100 µM (inactive)	> 100 µM (inactive)		> 100 µM (inactive)	> 100 µM (inactive)	> 100 µM (inactive)	> 100 µM (inactive)	> 100 µM (inactive)	> 100 µM (inactive)	> 100 µM (inactive)	31 µM (inactive)	> 100 µM (inactive)	73.6 µM (inactive)	> 100 µM (inactive)	> 100 µM (inactive)	> 100 µM (inactive)	
CSc1cc(Cl)c(C)cc1S(=O)(=O)NC(=O)NNc1cnc2ccccc2n1		> 100 µM (inactive)	> 100 µM (inactive)	> 100 µM (inactive)	> 100 µM (inactive)	> 100 µM (inactive)	> 100 µM (inactive)		> 100 µM (inactive)	> 100 µM (inactive)	> 100 µM (inactive)		> 100 µM (inactive)	> 100 µM (inactive)	> 100 µM (inactive)	> 100 µM (inactive)		> 100 µM (inactive)	> 100 µM (inactive)
O=C(O)CCSCCCN1C(=O)c2ccccc2C1=O	> 100 µM (inactive)		> 100 µM (inactive)	> 100 µM (inactive)	> 100 µM (inactive)		> 100 µM (inactive)	> 100 µM (inactive)		> 100 µM (inactive)	> 100 µM (inactive)		> 100 µM (inactive)						
COC(=O)C1=C(C)NC(C)=C(C(=O)OC)C1c1ccccc1NO	> 100 µM (inactive)	40 µM (inactive)	> 100 µM (inactive)	> 100 µM (inactive)	> 100 µM (inactive)	> 100 µM (inactive)	> 100 µM (inactive)	48.9 µM (inactive)	> 100 µM (inactive)	20.1 µM (inactive)	> 100 µM (inactive)	> 100 µM (inactive)	> 100 µM (inactive)	> 100 µM (inactive)	65.6 µM (inactive)	> 100 µM (inactive)	> 100 µM (inactive)	> 100 µM (inactive)	
CCOC(=O)c1ccc(NCc2ccc3nc(OC)c(OC)nc3c2)cc1	> 100 µM (inactive)	> 100 µM (inactive)	> 100 µM (inactive)	> 100 µM (inactive)	84.7 µM (inactive)	> 100 µM (inactive)	> 100 µM (inactive)		> 100 µM (inactive)	> 100 µM (inactive)	> 100 µM (inactive)	47.8 µM (inactive)	> 100 µM (inactive)	> 100 µM (inactive)	72.6 µM (inactive)	> 100 µM (inactive)		> 100 µM (inactive)	> 100 µM (inactive)
CC1=CC[C@@]2(C)CC[C@](O)(C(C)C)C2C(OC(=O)c2ccccc2)C1 (some centres undefined)		19.4 µM (inactive)	14.4 µM (inactive)	23.6 µM (inactive)	19.4 µM (inactive)	21.1 µM (inactive)	16 µM (inactive)	16 µM (inactive)	21.6 µM (inactive)	19.5 µM (inactive)	24 µM (inactive)	28.9 µM (inactive)	23.8 µM (inactive)	18.7 µM (inactive)	17.9 µM (inactive)	18.1 µM (inactive)		17.9 µM (inactive)	
COC(=O)C1(C(=O)OC)C/C(C)=C(/C)SCCCS1	> 100 µM (inactive)	> 100 µM (inactive)	> 100 µM (inactive)	86.3 µM (inactive)	> 100 µM (inactive)	> 100 µM (inactive)	> 100 µM (inactive)		> 100 µM (inactive)	43.1 µM (inactive)	> 100 µM (inactive)		79.1 µM (inactive)	64.1 µM (inactive)	> 100 µM (inactive)	> 100 µM (inactive)		> 100 µM (inactive)	> 100 µM (inactive)
CC(C)(C)c1ccc(OCCOc2ccc(C(C)(C)C)cc2N)c(N)c1	> 100 µM (inactive)	27.8 µM (inactive)	> 100 µM (inactive)	> 100 µM (inactive)	29.9 µM (inactive)	> 100 µM (inactive)	> 100 µM (inactive)	9.89 µM (inactive)	> 100 µM (inactive)	> 100 µM (inactive)	> 100 µM (inactive)	> 100 µM (inactive)	> 100 µM (inactive)	> 100 µM (inactive)	17.5 µM (inactive)	> 100 µM (inactive)	91 µM (inactive)	> 100 µM (inactive)	
CCOC(=O)c1cnc(-n2[nH]c(C)c(CCO)c2=O)[nH]c1=O	> 100 µM (inactive)	> 100 µM (inactive)	> 100 µM (inactive)	> 100 µM (inactive)	> 100 µM (inactive)	> 100 µM (inactive)	> 100 µM (inactive)	> 100 µM (inactive)	> 100 µM (inactive)	> 100 µM (inactive)	> 100 µM (inactive)	> 100 µM (inactive)	> 100 µM (inactive)	> 100 µM (inactive)	> 100 µM (inactive)	> 100 µM (inactive)		> 100 µM (inactive)	> 100 µM (inactive)
CCOC(=O)N1CCC(=C2c3ccc(Cl)cc3CCc3cccnc32)CC1 [LORATADINE]	4.73 µM (inactive)	10.9 µM (inactive)	11.2 µM (inactive)	10.2 µM (inactive)	12.7 µM (inactive)		20.8 µM (inactive)	3.83 µM (inactive)	3.44 µM (inactive)	6.12 µM (inactive)	5.57 µM (inactive)	6.12 µM (inactive)	14.6 µM (inactive)	10.4 µM (inactive)	20 µM (inactive)	11.5 µM (inactive)		7.4 µM (inactive)	4.55 µM (inactive)
